Source: patent publication US10858335B2 (Rigel Pharmaceuticals, Inc., priority 2014, dated 2020)

tested on: GDF8 signaling (p-SMAD-3 (Ser423/425)); assay: AlphaScreen SureFire SMAD3 (p-Ser423/425) assay, GDF8-stimulated cells (GDF pSMAD); format: cell-based; settings: Mus musculus, MPC-11, MPC11; GDF8-stimulated; p-SMAD3 AlphaScreen; read-out: GDF pSMAD (MPC11) (inhibition of GDF8 signaling)
Source text: Biological Example 1: AlphaScreen® SureFire® SMAD3 (p-Ser423/425) Assay
The p-SMAD-3 (Ser423/425) SureFire® assay has been designed to measure the phosphorylation of endogenous cellular p-SMAD-3 (Ser423/425) in cell lysates and is a system for the screening of both modulators of receptor activation (e.g. agonists and antagonists) as well as agents acting intracellularly, such as small molecule inhibitors of upstream events. The assay will measure p-SMAD-3 (Ser423/425) activation by either cloned or endogenous receptors, and can be applied to primary cells.
P-SMAD-3 (Ser423/425) SureFire® Assay Protocols
Step A: Preparation of Buffers
1× Lysis buffer: 1 ml of 5× Lysis buffer was diluted with 4 ml of sterile water. After dilution, excess 1× Lysis buffer can be frozen and thawed up to 5 times without loss in activity.
Activation buffer: The buffer was warmed slowly to 37° C. and gently mixed to re-suspend. Activation buffer can be stored at room temperature with no loss in activity.
Reaction buffer: The buffer was kept at 4° C. while in use.
AlphaScreen® Protein A IgG Kit: The kit was stored at 4° C. in the dark.
Reaction buffer+Activation buffer+AlphaScreen® Acceptor beads: Reaction buffer (40 parts), Activation Buffer (10 parts) and Acceptor beads (1 part) were mixed and the mixture was stored at room temperature and used the same day. Mixture was added to 384-well plates; excess mixture was discarded.
Dilution buffer+AlphaScreen® Donor beads: Dilution buffer (20 parts) and Donor beads (1 part) were mixed and the mixture was stored at room temperature and used the same day. Excess mixture was discarded.
Assay control samples: After reconstitution in 250 μl of water, lysates were at −20° C. in single use aliquots.
Step B: Preparation of Samples and Cells
96-well Assay Protocol for 293FT and RMS13 adherent cells can be carried out manually or in high throughput with liquid handling robots.
The cells (80 μL of cells for 96 well plates) were plated in collagen coated tissue culture plates in RPMI or FreeStyle medium (Invitrogen) and incubated overnight. For manual analysis, 6 plates for GDF8, 6 plates for TGFβ, and optionally 6 plates for AlkSca(ALK5 constitutively active) were used.
The compound dilution plates were prepared as follows: 12 μL of DMSO was transferred into first column of 96-well plate, and 16 μL of DMSO was transferred into columns 2-12 of the 96-well plate. 12 μL of compound solution was transferred into first column of the DMSO-containing 96-well plate. Three-fold dilution was performed up to column 10 of the DMSO-containing 96-well plate.
Step C: Treatment and Analysis
The plate containing cells were treated with compounds for about 10 minutes, and then ligand was added. GDF8 or TGFb was added to plates to stimulate. 293FL cells were stimulated for 90 minutes at 37° C.; and RMS13 cells were stimulated for 60 minutes at 37° C. The medium was then removed from the cells, and 1× Lysis Buffer (about 25 μL) was added and the plate was gently agitated on plate shaker for 5-10 minutes.
The lysate (5 μL) was then placed into 384-well shallow plates avoiding the generation of bubbles. To this, the Reaction Buffer+Activation Buffer+AlphaScreen® Acceptor beads mixture (5 μL) was added. The plate was sealed with adhesive cover and shielded from light (e.g., with metal foil), and agitated gently on plate shaker for 2 hours at room temperature.
Dilution buffer+AlphaScreen® Donor beads (2 μL) was then added, and the plate was intubated on the plate shaker for an additional 1½ hours. After completion, the plate was read on Synergy-4 or Enspire plate reader, using AlphaScreen® pSMAD3® settings.
Representative results for inhibition of GDF8 signaling are shown in Table 2(data=GDF pSMAD (MPC11) (μM)): […]

Row | SMILES | IC50 [nM]
1 | Cc1cc(-c2ncccc2-c2ccc3ncc(C(C)O)n3c2)ccc1F (racemic) [compound 598, rac-1-(6-(2-(4-Fluoro-3-methylphenyl)pyridin-3-yl)imidazo[1,2-a]pyridin-3-yl)ethan-1-ol] | 2050
2 | Cc1cc(-c2ncccc2-c2ccc3ncc(C(=O)NC4CC5CCC(C4)N5C)n3c2)ccc1F (racemic) [compound 711, rac-6-(2-(4-Fluoro-3-methylphenyl)pyridin-3-yl)-N-(8-methyl-8-azabicyclo[3.2.1]octan-3-yl)imidazo[1,2-a]pyridine-3-carboxamide] | 9280
3 | Cc1cc(-c2ncccc2-c2ccn3ncc(C(=O)NC4CC5CCC(C4)N5C)c3c2)ccc1F (racemic) [compound 714, rac-5-(2-(4-Fluoro-3-methylphenyl)pyridin-3-yl)-N-(8-methyl-8-azabicyclo[3.2.1]octan-3-yl)pyrazolo[1,5-a]pyridine-3-carboxamide] | 5660
4 | CCOc1cnc(-c2ccc(F)c(C)c2)c(-c2ccc3[nH]ncc3c2)c1 [Compound 1, 5-(5-Ethoxy-2-(4-fluoro-3-methylphenyl)pyridin-3-yl)-1H-indazole] | 1650
5 | CCOc1cnc(-c2cccc(C)c2)c(-c2ccc3[nH]ncc3c2)c1 [Compound 3, 5-(5-Ethoxy-2-m-tolylpyridin-3-yl)-1H-indazole] | 1300
6 | CCOc1cnc(-c2ccc(F)cc2)c(-c2ccc3[nH]ncc3c2)c1 [Compound 6, 5-(5-Ethoxy-2-(4-fluorophenyl)pyridin-3-yl)-1H-indazole] | 18600
7 | CCOc1cnc(-c2ccc(F)c(F)c2)c(-c2ccc3[nH]ncc3c2)c1 [Compound 7, 5-(5-Ethoxy-2-(3,4-difluorophenyl)pyridin-3-yl)-1H-indazole] | 23100
8 | COc1cnc(-c2ccc(F)c(C)c2)c(-c2ccc3[nH]ncc3c2)c1 [Compound 8, 5-(2-(4-Fluoro-3-methylphenyl)-5-methoxypyridin-3-yl)-1H-indazole] | 5350
9 | Cc1cc(-c2ncc(Cl)cc2-c2ccc3[nH]ncc3c2)ccc1F [Compound 9, 5-(5-Chloro-2-(4-fluoro-3-methylphenyl)pyridin-3-yl)-1H-indazole] | 5140
10 | Cc1cnc(-c2ccc(F)c(C)c2)c(-c2ccc3[nH]ncc3c2)c1 [Compound 11, 5-(2-(4-Fluoro-3-methylphenyl)-5-methylpyridin-3-yl)-1H-indazole] | 594
11 | Cc1ccc(-c2ccc3[nH]ncc3c2)c(-c2ccc(F)c(C)c2)n1 [Compound 12, 5-(2-(4-Fluoro-3-methylphenyl)-6-methylpyridin-3-yl)-1H-indazole] | 18900
12 | Nc1cnc(-c2cccc(C3CC3)c2)c(-c2ccc3[nH]ncc3c2)c1 [Compound 15, 6-(3-Cyclopropylphenyl)-5-(1H-indazol-5-yl)pyridin-3-amine] | 64.9
13 | CC(C)c1cccc(-c2ncc(N)cc2-c2ccc3[nH]ncc3c2)c1 [Compound 16, 5-(1H-Indazol-5-yl)-6-(3-isopropylphenyl)pyridin-3-amine] | 6340
14 | Cc1cc(-c2ncc(N)cc2-c2ccc3[nH]ncc3c2)ccc1F [Compound 17, 6-(4-Fluoro-3-methylphenyl)-5-(1H-indazol-5-yl)pyridin-3-amine] | 336
15 | Cc1cc(-c2ncc(N)cc2-c2ccc3ncsc3c2)ccc1F [Compound 18, 5-(Benzo[d]thiazol-6-yl)-6-(4-fluoro-3-methylphenyl)pyridin-3-amine] | 142
16 | Nc1cnc(-c2cccc(C3CC3)c2)c(-c2ccc3ncsc3c2)c1 [Compound 19, 5-(Benzo[d]thiazol-6-yl)-6-(3-cyclopropylphenyl)pyridin-3-amine] | 83

Row | SMILES | IC50 [nM]
17 | Cc1cccc(-c2ncc(N)cc2-c2ccc3ncsc3c2)c1 [Compound 20, 5-(Benzo[d]thiazol-6-yl)-6-m-tolylpyridin-3-amine] | 104
18 | Cc1cc(-c2nc(N)ccc2-c2ccc3[nH]ncc3c2)ccc1F [Compound 21, 6-(4-Fluoro-3-methylphenyl)-5-(1H-indazol-5-yl)pyridin-2-amine] | 1920
19 | Nc1ccc(-c2ccc3[nH]ncc3c2)c(-c2cccc(C3CC3)c2)n1 [Compound 22, 6-(3-Cyclopropylphenyl)-5-(1H-indazol-5-yl)pyridin-2-amine] | 1410
20 | Cc1cccc(-c2nc(N)ccc2-c2ccc3[nH]ncc3c2)c1 [Compound 23, 5-(1H-Indazol-5-yl)-6-m-tolylpyridin-2-amine] | 2240
21 | CC(=O)Nc1cnc(-c2ccc(F)c(C)c2)c(-c2ccc3[nH]ncc3c2)c1 [Compound 24, N-(6-(4-Fluoro-3-methylphenyl)-5-(1H-indazol-5-yl)pyridin-3-yl)acetamide] | 671
22 | CC(=O)Nc1cnc(-c2cccc(C3CC3)c2)c(-c2ccc3[nH]ncc3c2)c1 [Compound 25, N-(6-(3-Cyclopropylphenyl)-5-(1H-indazol-5-yl)pyridin-3-yl)acetamide] | 612
23 | Cc1cc(-c2nc(N)ccc2-c2ccc3ncsc3c2)ccc1F [Compound 27, 5-(Benzo[d]thiazol-6-yl)-6-(4-fluoro-3-methylphenyl)pyridin-2-amine] | 453
24 | Nc1ccc(-c2ccc3ncsc3c2)c(-c2cccc(C3CC3)c2)n1 [Compound 28, 5-(Benzo[d]thiazol-6-yl)-6-(3-cyclopropylphenyl)pyridin-2-amine] | 1750
25 | Cc1cccc(-c2nc(N)ccc2-c2ccc3ncsc3c2)c1 [Compound 29, 5-(Benzo[d]thiazol-6-yl)-6-m-tolylpyridin-2-amine] | 1450
26 | Cc1cc(-c2ncc(NS(C)(=O)=O)cc2-c2ccc3[nH]ncc3c2)ccc1F [Compound 30, N-(6-(4-Fluoro-3-methylphenyl)-5-(1H-indazol-5-yl)pyridin-3-yl)methanesulfonamide] | 3700
27 | CS(=O)(=O)Nc1cnc(-c2cccc(C3CC3)c2)c(-c2ccc3[nH]ncc3c2)c1 [Compound 31, N-(6-(3-Cyclopropylphenyl)-5-(1H-indazol-5-yl)pyridin-3-yl) methanesulfonamide] | 1900
28 | Cc1cccc(-c2ncc(NS(C)(=O)=O)cc2-c2ccc3[nH]ncc3c2)c1 [Compound 32, N-(5-(1H-Indazol-5-yl)-6-m-tolylpyridin-3-yl) methanesulfonamide] | 2800
29 | Cc1cc(-c2ncccc2-c2ccc3ncn(CCN4CCOCC4)c3c2)ccc1F [Compound 35, 6-(2-(4-Fluoro-3-methylphenyl)pyridin-3-yl)-1-(2-morpholinoethyl)-1H-benzo[d]imidazole] | 10800
30 | Cc1cccc(-c2ncccc2-c2ccc3ncn(CCN4CCOCC4)c3c2)c1 [Compound 36, 1-(2-Morpholinoethyl)-6-(2-m-tolylpyridin-3-yl)-1H-benzo[d]imidazole] | 19700
31 | Cc1cc(-c2ncccc2-c2ccc3ncn(CCN4CCN(C)CC4)c3c2)ccc1F [Compound 37, 6-(2-(4-Fluoro-3-methylphenyl)pyridin-3-yl)-1-(2-(4-methylpiperazin-1-yl)ethyl)-1H-benzo[d]imidazole] | 18100
32 | CCOCCCn1cnc2ccc(-c3cccnc3-c3cccc(C)c3)cc21 [Compound 39, 1-(3-Ethoxypropyl)-6-(2-m-tolylpyridin-3-yl)-1H-benzo[d]imidazole] | 14300
